The values below come from patent US9447091B2, “Protein kinase inhibitors” (Orion Corporation, priority 2011, dated 2016).

This assay concerns the target FGFR1 kinase (Homo sapiens (Human), UniProt P11362). Nature of the assay: FGFR1 TR-FRET kinase assay. The assay is classed as biochemical. The note with it: for IC50: 13 μM ATP, read-out: IC50 of FGFR1 inhibition. As for the experimental part:
Compounds were screened in the TR-FRET assay with FGFR1 kinase. 5 ng of FGFR1 [Upstate, USA] kinase was used for assay. The compound was incubated with the kinase for 30 minutes at RT. After the incubation, substrate mix [40 nM Ultra light poly GT (Perkin Elmer, USA) and 13 μM ATP (Sigma)] was added. The above reaction was stopped by the addition of 40 mM EDTA after the […] kinase reaction. The Eu-labelled antiphospho-tyrosine antibody [Perkin Elmer, USA] was added at 0.5 nM and the fluorescence emission at 615 nm/665 nm [excitation at 340 nm] was measured. The compounds were initially screened at 100 nM and 1 μM concentrations. The compounds with >50% inhibition at 100 nM of FGFR1 were taken for the full dose response studies. The final DMSO concentration in the assay was 1%. For IC50 determination, ⅓^rd serial dilution was made from the 20 mM DMSO stock solution. 2 μl of these were transferred to the test wells containing 20 μl of the reaction mixture [total reaction volume 20 μl]. The fluorescence was measured in Perkin Elmer Wallac 1420 Multilabel Counter Victor 3. The IC50 was determined by fitting the dose response data to sigmoidal curve fitting equation using GraphPad Prism software V5.
Background: TR-FRET usually uses a lanthanide donor and a delayed reading to cut background.

FGFR1 kinase, sequence (P11362 22-822): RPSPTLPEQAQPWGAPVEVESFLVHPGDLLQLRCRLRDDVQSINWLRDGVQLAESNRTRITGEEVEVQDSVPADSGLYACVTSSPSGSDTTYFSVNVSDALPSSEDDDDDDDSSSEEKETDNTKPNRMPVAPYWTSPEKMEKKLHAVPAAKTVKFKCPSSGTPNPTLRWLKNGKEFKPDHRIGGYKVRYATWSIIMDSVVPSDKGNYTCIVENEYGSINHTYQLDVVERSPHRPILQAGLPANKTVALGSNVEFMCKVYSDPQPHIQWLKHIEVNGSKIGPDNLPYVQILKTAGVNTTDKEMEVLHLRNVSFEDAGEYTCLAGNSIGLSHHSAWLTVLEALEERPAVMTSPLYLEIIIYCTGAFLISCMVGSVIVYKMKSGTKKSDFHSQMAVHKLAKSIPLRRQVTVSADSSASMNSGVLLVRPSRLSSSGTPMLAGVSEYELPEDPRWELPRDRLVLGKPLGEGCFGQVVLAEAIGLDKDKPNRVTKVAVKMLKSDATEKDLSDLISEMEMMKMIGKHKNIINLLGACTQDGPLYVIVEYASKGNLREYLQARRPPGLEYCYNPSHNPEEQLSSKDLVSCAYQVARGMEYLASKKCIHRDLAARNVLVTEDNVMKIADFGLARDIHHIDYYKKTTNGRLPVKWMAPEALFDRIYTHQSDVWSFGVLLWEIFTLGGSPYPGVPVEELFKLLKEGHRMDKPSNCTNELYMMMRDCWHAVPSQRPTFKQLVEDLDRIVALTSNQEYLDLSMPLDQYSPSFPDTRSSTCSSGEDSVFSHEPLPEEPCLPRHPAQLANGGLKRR

As to `CC(=O)Nc1cc(-c2ccc(F)cc2F)cc(-n2cnc3cc(C4=NCCN4)ccc32)c1` [Example 169, N-(5-(5-(4,5-dihydro-1H-imidazol-2-yl)-1H-benzo[d]imidazol-1-yl)-2′,4′-difluoro-[1,1′-biphenyl]-3-yl)acetamide], the IC50 was found to be 0.094 µM. For the same molecule, 1 µM produced 89% inhibition (1000 nM compound).

As to `CC(=O)Nc1cc(-c2ccc(F)cc2)cc(-n2cnc3cc(-c4ccc(F)nc4)ccc32)c1` [Example 170, N-(4′-fluoro-5-(5-(6-fluoropyridin-3-yl)-1H-benzo[d]imidazol-1-yl)-[1,1′-biphenyl]-3-yl)acetamide], the IC50 was determined as 0.059 µM. Also, for the setting “1000 nM compound”, the inhibition at 1 µM is 92%.

With `CC(=O)Nc1cc(-c2ccc(F)cc2F)cc(-n2cnc3cc(-c4ccc(F)nc4)cnc32)c1` [Example 178, N-(2′,4′-difluoro-5-(6-(6-fluoropyridin-3-yl)-3H-imidazo[4,5-b]pyridin-3-yl)-[1,1′-biphenyl]-3-yl)acetamide], the IC50 is 0.0149 µM. In addition, the inhibition at 1 µM (1000 nM compound) is 86%.

Regarding `COc1ccc(-c2cc(NC(C)=O)cc(-n3cnc4cc(-c5cnn(C)c5)ccc43)c2)c(F)c1` [Example 190, N-(2′-fluoro-4′-methoxy-5-(5-(1-methyl-1H-pyrazol-4-yl)-1H-benzo[d]imidazol-1-yl)-[1,1′-biphenyl]-3-yl)acetamide], the IC50 was found to be 0.0043 µM. The inhibition at 1 µM (1000 nM compound) came out at 96%.

On to `CC(C)n1cc(-c2ccc3c(c2)ncn3-c2cc(NS(=O)(=O)C3CC3)cc(-c3ccc(F)cc3F)c2)cn1` [Example 204, N-(2′,4′-difluoro-5-(5-(1-isopropyl-1H-pyrazol-4-yl)-1H-benzo[d]imidazol-1-yl)-[1,1′-biphenyl]-3-yl)cyclopropanesulfonamide], for which the IC50 was found to be 0.02 µM. Moreover, where the note is “1000 nM compound”, at 1 µM the inhibition was 98%.

Consider `CNS(=O)(=O)N(C)c1cc(-c2ccc(F)cc2F)cc(-n2cnc3cc(-c4cnn(C(C)C)c4)cnc32)c1` [Example 217, N-(2′,4′-difluoro-5-(6-(1-isopropyl-1H-pyrazol-4-yl)-3H-imidazo[4,5-b]pyridin-3-yl)-[1,1′-biphenyl]-3-yl)-N,N′-dimethylsulfuric diamide], for which the IC50 is 0.0104 µM. For the setting “1000 nM compound”, the inhibition at 1 µM was found to be 91%.

As to `CC(=O)Nc1cc(-c2ccc(F)cc2)cc(-n2cnc3cc(-c4cnn(CCC(C)(C)O)c4)ccc32)c1` [Example 220, N-(4′-fluoro-5-(5-(1-(3-hydroxy-3-methylbutyl)-1H-pyrazol-4-yl)-1H-benzo[d]-imidazol-1-yl)-[1,1′-biphenyl]-3-yl) acetamide], the IC50 turned out to be 0.0034 µM. Under “1000 nM compound”, this molecule gave an inhibition at 1 µM of 97%.

On to `Cn1cc(-c2ccc3c(c2)ncn3-c2cc(NC(=O)Cn3cncn3)cc(-c3ccc(F)cc3F)c2)cn1` [Example 241, N-(2′,4′-difluoro-5-(5-(1-methyl-1H-pyrazol-4-yl)-1H-benzo[d]imidazol-1-yl)-[1,1′-biphenyl]-3-yl)-2-(1H-1,2,4-triazol-1-yl) acetamide], for which the IC50 came out at 0.0029 µM. Besides, the “Inhibition (%) of FGFR1 at 1000 nM” value (1000 nM compound) was 97%.

Regarding `Cn1cc(-c2cnc3c(c2)ncn3-c2cc(NS(=O)(=O)NC3CC3)cc(-c3ccc(F)cc3F)c2)cn1` [Example 244, N-cyclopropyl-N′-(2′,4′-difluoro-5-(6-(1-methyl-1H-pyrazol-4-yl)-3H-imidazo[4,5-b]pyridin-3-yl)-[1,1′-biphenyl]-3-yl)-sulfuric diamide], the concentration for half-maximal inhibition (IC50) was determined as 0.014 µM. Moreover, 1 µM produced 98% inhibition (1000 nM compound).

`O=C(CN1CCCCC1)Nc1cc(-c2ccc(F)cc2F)cc(-n2cnc3cc(-n4cccn4)ccc32)c1` [Example 259, N-(5-(5-(1H-pyrazol-1-yl)-1H-benzo[d]imidazol-1-yl)-2′,4′-difluoro-[1,1′-biphenyl]-3-yl)-2-(piperidin-1-yl)acetamide]: the IC50 was 0.045 µM. This molecule also showed an inhibition at 1 µM (1000 nM compound) of 92%.

Take `Cn1cc(-c2ccc3c(c2)ncn3-c2cc(Nc3ncccn3)cc(-c3ccc(F)cc3F)c2)cn1` [Example 280, N-(2′,4′-difluoro-5-(5-(1-methyl-1H-pyrazol-4-yl)-1H-benzo[d]imidazol-1-yl)-[1,1′-biphenyl]-3-yl)pyrimidin-2-amine]: the IC50 was 0.09 µM. Besides, testing at 1 µM (1000 nM compound) gave an inhibition of 80%.

Regarding `Cn1cc(-c2ccc3c(c2)ncn3-c2cc(Nc3nccs3)cc(-c3ccc(F)cc3F)c2)cn1` [Example 281, N-(2′,4′-difluoro-5-(5-(1-methyl-1H-pyrazol-4-yl)-1H-benzo[d]imidazol-1-yl)-[1,1′-biphenyl]-3-yl) thiazol-2-amine], the IC50 is 0.009 µM. Also, under “1000 nM compound”, the inhibition at 1 µM was 96%.

In the case of `O=c1ccc(-c2ccc3c(c2)ncn3-c2cc(NS(=O)(=O)C3CC3)cc(-c3ccc(F)cc3F)c2)c[nH]1` [Example 289, N-(2′,4′-difluoro-5-(5-(6-oxo-1,6-dihydropyridin-3-yl)-1H-benzo[d]imidazol-1-yl)-[1,1′-biphenyl]-3-yl)cyclopropanesulfonamide], the IC50 is 0.032 µM. 1 µM produced 94% inhibition (1000 nM compound).

Consider `CS(=O)(=O)Nc1cc(-c2ncccc2F)cc(-n2cnc3cc(-c4cnn(CCN5CCOCC5)c4)ccc32)c1` [Example 294, N-(3-(3-fluoropyridin-2-yl)-5-(5-(1-(2-morpholinoethyl)-1H-pyrazol-4-yl)-1H-benzo[d]imidazol-1-yl)phenyl)methane sulphonamide], for which the IC50 amounted to 0.0093 µM. Where the note is “1000 nM compound”, this molecule came in with an inhibition at 1 µM of 99%.

Consider `CN1CCC(C(=O)Nc2cc(-c3ccc(F)cc3F)cc(-n3cnc4cc(-c5cnn(C)c5)cnc43)c2)CC1` [Example 319, N-(2′,4′-difluoro-5-(6-(1-methyl-1H-pyrazol-4-yl)-3H-imidazo[4,5-b]pyridin-3-yl)-[1,1′-biphenyl]-3-yl)-1-methylpiperidine-4-carboxamide], for which the IC50 is 0.018 µM. This molecule also gave an inhibition at 1 µM (1000 nM compound) of 97%.

As to `O=S(=O)(Nc1cc(C2=CC=C(F)CC2F)cc(-n2cnc3cc(N4CCC(O)C4)ccc32)c1)C1CC1` (centres unmarked) [Example 322, N-(2′,4′-difluoro-5-(5-(3-hydroxypyrrolidin-1-yl)-1H-benzo[d]imidazol-1-yl)-2′,3′-dihydro-[1,1′-biphenyl]-3-yl)cyclopropanesulfonamide], the IC50 came out at 0.0658 µM. The same molecule registered an inhibition at 1 µM (1000 nM compound) of 92%.

The inhibition is the change of the read-out against control, counted positive when it falls. The IC50 is the concentration that gives 50% inhibition.
